Assay results published in patent US12180187B2, “1-phenyl-5-azinylpyrazolyl-3-oxyalkyl acids and their use for controlling unwanted plant growth” (BAYER AKTIENGESELLSCHAFT, priority 2019, dated 2024).

Key:
[1] = test system: AVEFA; assay: Post-emergence action at 320 g/ha against AVEFA; assay type: in vivo; conditions: visual rating about 3 weeks after treatment vs untreated controls
Method in brief: (§1)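 Greenhouse-grown plants sprayed post-emergence at the one-leaf stage, 2 to 3 weeks after sowing, with WP or EC formulations plus 0.5% additive at 600 l/ha water, at 320 g/ha. Activity rated visually after about 3 weeks versus untreated controls (100% = plants died, 0% = like control).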

[2] = test system: DIGSA; assay: Pre-emergence action against DIGSA, 1280 g/ha; assay type: in vivo, Digitaria sanguinalis; conditions: visual scoring after about 3 weeks vs untreated controls, 100% = plants have died, 0% = like control plants
Method in brief: (§2)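 Weed seeds sown in sandy loam in pots, covered with soil; compound as WP or EC applied to soil surface as aqueous suspension/emulsion with 0.5% additive at 600 L/ha water. Greenhouse, good growth conditions; visual % damage vs untreated controls after about 3 weeks (100% = plants dead, 0% = like control).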

[3] = test system: AVEFA; assay: Pre-emergence action at 320 g/ha against AVEFA; assay type: in vivo; conditions: visual scoring after about 3 weeks vs untreated controls
Method in brief: (§3)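 Weed and crop seeds sown in pots and covered with soil; WP or EC formulations sprayed pre-emergence onto the soil surface at 320 g/ha with 0.5% additive in 600 l/ha water. Kept in greenhouse; after about 3 weeks activity scored visually as % versus untreated controls (100% = plants dead, 0% = as control).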

[4] = test system: LOLRI; assay: Pre-emergence action against LOLRI, 1280 g/ha; assay type: in vivo, Lolium rigidum; conditions: visual scoring after about 3 weeks vs untreated controls, 100% = plants have died, 0% = like control plants
Method in brief: as §2

[5] = test system: VIOTR; assay: Post-emergence action at 320 g/ha against VIOTR; assay type: in vivo, Viola tricolor; conditions: visual rating about 3 weeks after treatment vs untreated controls
Method in brief: as §1

[6] = test system: VERPE; assay: Post-emergence action against VERPE, 1.28 kg/ha; assay type: in vivo, Veronica persica; conditions: dosage 1280 g/ha, visual rating about 3 weeks after treatment vs untreated controls (100% = plants died)
Method in brief: (§4)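 Visual rating against untreated plants about 3 weeks after spraying gives % activity, where 0% means like controls and 100% means plants died. Plants were treated post-emergence at the one-leaf stage with compound formulated as wettable powder or emulsion concentrate, applied at 600 L water/ha plus 0.5% additive.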

[7] = test system: VERPE; assay: Pre-emergence action against VERPE, 1280 g/ha; assay type: in vivo, Veronica persica; conditions: scored visually after about 3 weeks vs untreated controls (100% = plants have died)
Method in brief: as §2

[8] = test system: ALOMY; assay: Post-emergence action against ALOMY, 320 g/ha; assay type: in vivo, Alopecurus myosuroides; conditions: dosage 320 g/ha, visual rating about 3 weeks after treatment vs untreated controls (100% = plants died)
Method in brief: as §1

[9] = test system: DIGSA; assay: Post-emergence action against DIGSA, 1.28 kg/ha; assay type: in vivo, Digitaria sanguinalis; conditions: dosage 1280 g/ha, visual rating about 3 weeks after treatment vs untreated controls
Method in brief: as §4

[10] = test system: ALOMY; assay: Pre-emergence action against ALOMY, 1280 g/ha; assay type: in vivo, Alopecurus myosuroides; conditions: visual scoring after about 3 weeks vs untreated controls, 100% = plants have died, 0% = like control plants
Method in brief: as §2

[11] = test system: ALOMY; assay: Post-emergence action against ALOMY, 1.28 kg/ha; assay type: in vivo, Alopecurus myosuroides; conditions: dosage 1280 g/ha, visual rating about 3 weeks after treatment vs untreated controls
Method in brief: as §4

[12] = test system: LOLRI; assay: Pre-emergence action at 320 g/ha against LOLRI; assay type: in vivo, Lolium rigidum; conditions: visual scoring after about 3 weeks vs untreated controls
Method in brief: as §3

[13] = test system: MATIN; assay: Post-emergence action against MATIN, 1.28 kg/ha; assay type: in vivo, Tripleurospermum inodorum (Matricaria inodora); conditions: dosage 1280 g/ha, visual rating about 3 weeks after treatment vs untreated controls (100% = plants died)
Method in brief: as §4

COC(=O)[C@@H](C)Oc1nn(-c2cc(F)ccc2F)c(-c2ccc(F)nc2)c1Br [VII-062]
Post-emergence action against AVEFA in % [1]: 90%
Pre-emergence action against DIGSA [2]: 100%
Pre-emergence action against AVEFA in % [3]: 100%
Pre-emergence action against LOLRI [4]: 100%
Post-emergence action against VIOTR in % [5]: 80%
Post-emergence action against VERPE [6]: 100%
Pre-emergence action against VERPE [7]: 100%
Post-emergence action against ALOMY [8]: 90%
Post-emergence action against DIGSA [9]: 100%
Pre-emergence action against ALOMY [10]: 100%
Post-emergence action against ALOMY [11]: 100%
Pre-emergence action against LOLRI in % [12]: 100%

CCOC(=O)C(C)Oc1nn(-c2ccccc2F)c(-c2ccc(F)nc2)c1C(F)(F)F (stereo not drawn) [VII-066]
Pre-emergence action against DIGSA [2]: 100%
Pre-emergence action against AVEFA in % [3]: 90%
Pre-emergence action against LOLRI [4]: 100%
Post-emergence action against VIOTR in % [5]: 80%
Post-emergence action against VERPE [6]: 90%
Pre-emergence action against VERPE [7]: 100%
Post-emergence action against MATIN [13]: 90%
Post-emergence action against ALOMY [8]: 90%
Post-emergence action against DIGSA [9]: 100%
Pre-emergence action against ALOMY [10]: 100%
Post-emergence action against ALOMY [11]: 100%
Pre-emergence action against LOLRI in % [12]: 90%

O=C(COc1nn(-c2ccccc2F)c(-c2ccc(F)nc2)c1Br)OCC1CCOC1 (stereo not drawn) [VII-091]
Post-emergence action against AVEFA in % [1]: 80%
Pre-emergence action against DIGSA [2]: 100%
Pre-emergence action against AVEFA in % [3]: 90%
Pre-emergence action against LOLRI [4]: 100%
Post-emergence action against VERPE [6]: 100%
Pre-emergence action against VERPE [7]: 100%
Post-emergence action against MATIN [13]: 90%
Post-emergence action against ALOMY [8]: 90%
Post-emergence action against DIGSA [9]: 100%
Pre-emergence action against ALOMY [10]: 100%
Post-emergence action against ALOMY [11]: 100%
Pre-emergence action against LOLRI in % [12]: 100%

O=C(COc1nn(-c2ccccc2F)c(-c2ccc(F)nc2)c1Br)OCC1OCCO1 [VII-103]
Post-emergence action against AVEFA in % [1]: 80%
Pre-emergence action against DIGSA [2]: 100%
Pre-emergence action against AVEFA in % [3]: 90%
Pre-emergence action against LOLRI [4]: 100%
Post-emergence action against VERPE [6]: 100%
Pre-emergence action against VERPE [7]: 100%
Post-emergence action against MATIN [13]: 90%
Post-emergence action against ALOMY [8]: 100%
Post-emergence action against DIGSA [9]: 100%
Pre-emergence action against ALOMY [10]: 100%
Post-emergence action against ALOMY [11]: 100%
Pre-emergence action against LOLRI in % [12]: 100%

COC(=O)[C@H](C)Oc1nn(-c2cc(F)ccc2F)c(-c2ccc(F)nc2)c1Br [VII-107]
Pre-emergence action against DIGSA [2]: 100%
Pre-emergence action against AVEFA in % [3]: 90%
Pre-emergence action against LOLRI [4]: 90%
Post-emergence action against VIOTR in % [5]: 80%
Post-emergence action against VERPE [6]: 100%
Pre-emergence action against VERPE [7]: 100%
Post-emergence action against MATIN [13]: 100%
Post-emergence action against ALOMY [8]: 90%
Post-emergence action against DIGSA [9]: 100%
Pre-emergence action against ALOMY [10]: 90%
Post-emergence action against ALOMY [11]: 100%
Pre-emergence action against LOLRI in % [12]: 80%

CCOC(=O)COc1nn(-c2ccccc2F)c(-c2ccc(F)nc2)c1C [VII-117]
Post-emergence action against AVEFA in % [1]: 90%
Pre-emergence action against DIGSA [2]: 100%
Pre-emergence action against AVEFA in % [3]: 100%
Pre-emergence action against LOLRI [4]: 100%
Post-emergence action against VIOTR in % [5]: 80%
Post-emergence action against VERPE [6]: 100%
Pre-emergence action against VERPE [7]: 100%
Post-emergence action against MATIN [13]: 90%
Post-emergence action against ALOMY [8]: 90%
Post-emergence action against DIGSA [9]: 100%
Pre-emergence action against ALOMY [10]: 100%
Pre-emergence action against LOLRI in % [12]: 100%

COC(=O)[C@@H](C)Oc1nn(-c2cc(F)ccc2F)c(-c2cncc(F)c2)c1C#N [VII-147]
Post-emergence action against AVEFA in % [1]: 80%
Pre-emergence action against DIGSA [2]: 100%
Pre-emergence action against AVEFA in % [3]: 100%
Pre-emergence action against LOLRI [4]: 100%
Post-emergence action against VERPE [6]: 100%
Pre-emergence action against VERPE [7]: 100%
Post-emergence action against MATIN [13]: 100%
Post-emergence action against ALOMY [8]: 90%
Post-emergence action against DIGSA [9]: 100%
Pre-emergence action against ALOMY [10]: 100%
Post-emergence action against ALOMY [11]: 100%
Pre-emergence action against LOLRI in % [12]: 100%
